Assay [1] has as its system lipid peroxidation (rat liver homogenate). The assay is described as follows: Antioxidant activity, inhibition of iron induced lipid peroxidation in liver homogenate. In kind it is biochemical, Wistar rat. The following applies: FeSO4, 37° C., 2 h; <25 μM where IC50 was not determined. The procedure: The liver of a Wistar rat anesthetized with ether was collected and homogenized in 4 volumes of phosphate buffer (+4° C., pH 7.4) by means of a Potter. After centrifugation at 2000 rpm for 10 min the supernatant obtained was kept at +4° C. Lipid peroxidation was carried out in presence of FeSOhd according to the method described by A. T. Quitaniha et at, Ann.
The mixture contained 1.7 ml phosphate buffer, 0.2 ml homogenate and 0.1 ml of a 2 mM FeSO4 solution. The test compounds were added in a volume of 61 μl of ethanol or DMSO. Oxydation was carried out at 37° C. for 2 h and was stopped by the addition of 20 μl of 2% ethanolic solution of BHT.

The test system of another assay is plasma cholesterol. The assay is described as follows: Hypocholesterolemic activity, plasma cholesterol in mice fed test compound in diet. Type of assay: in vivo, OF1 strain mice. The following applies: for change in vivo at 180 mg/kg/day: Mus musculus, feed or water, 240 h, read-out: Plasma Cholesterol (% Control), 0.1% compound in food, 10 days, ca. 180 mg/kg daily, mouse; for decrease plasma cholesterol by: 0.1% in food; for plasma cholesterol values as compared to control: same experimental conditions, reference drugs. The procedure: A. Hypocholesterolemic activity
Mouse fed a normal diet is a convenient model which was proposed by several authors (P. Olivier et al, Atherosclerosis 70, 107-114, 1988) ,for the screening for hypocholesterolemic drugs. OF1 strain mice (Iffa Credo) weighing between 25 and 35 g were divided into 5 groups of 5 animals each, four groups received the test compounds and the fifth group served as control. The test compounds were dissolved in diethyl ether. The ether solution was added to food to obtain a final concentration of 0.1%. compound in food. Ether was then evaporated at room temperature. The animals were fed for 10 days, the dally food intake corresponds to ca. 180 mg/kg. After an overnight fast, they were sacrificed by decapitation under ether anesthesia. Blood samples were collected using EDTA as anticoagulant.
Plasma cholesterol was measured by an enzymatic test (DIAMED, Morat, Switzerland). The mean values of each group receiving the test or reference compounds were expressed as percent of mean value of the contemporary control.

This note sets out measurements from patent publication US5424303A, “Substituted aminophosphonate derivatives, process for their preparation and pharmaceutical compositions containing them” (Symphar SA, priority 1992, dated 1995).

A word on the IC50: it is the concentration that gives 50% inhibition. Read a high IC50 as a need for much substance. In turn, `CC(=O)N(CCCc1ccccc1)C(c1cc(C(C)(C)C)c(O)c(C(C)(C)C)c1)P(=O)(OC(C)C)OC(C)C` (stereo not shown) [Compound 62] had an IC50 in assay [1] of less than 25 µM. Also, in the assay on plasma cholesterol, the change in vivo at 180 mg/kg/day was -32%. For the same compound, in the assay on plasma cholesterol (mouse, 10 days), the “decrease plasma cholesterol by” value is “more than 30%”. With `CCOP(=O)(OCC)C(NCc1ccncc1)c1cc(C(C)(C)C)c(O)c(C(C)(C)C)c1` (stereo not shown) [Compound 86], the change in vivo at 180 mg/kg/day in the assay on plasma cholesterol was -15%. Consider `CCOP(=O)(OCC)C(NCCCCc1ccccc1)c1cc(C(C)(C)C)c(O)c(C(C)(C)C)c1` (stereo not drawn) [Compound 27, Diethyl α-(3 ,5-di-tert-butyl-4-hydroxyphenyl)-N-(4-phenylbutyl)-aminomethylphosphonate], for which 2.1 µM corresponded to half-maximal inhibition in assay [1] (IC50). Moreover, the change in vivo at 180 mg/kg/day with plasma cholesterol was -43%. Besides, in the assay with plasma cholesterol (mouse, 10 days), the “decrease plasma cholesterol by” value is on record as “more than 30%”. Take `CCOP(=O)(OCC)C(c1cc(C(C)(C)C)c(O)c(C(C)(C)C)c1)N(C)Cc1cccnc1` (stereo not drawn) [Compound 49, Diethyl α-(3.,5-di-tert-butyl-4-hydroxyphenyl)-N-methyl-N-(3-picolyl)aminomethylphosphonate]: the IC50 in assay [1] was found to be 12.8 µM. Also, the change in vivo at 180 mg/kg/day in the assay with plasma cholesterol was -19%. Take `CCOP(=O)(OCC)C(NCCOc1ccccc1)c1cc(C(C)(C)C)c(O)c(C(C)(C)C)c1` (stereo not shown) [Compound 28]: the IC50 in assay [1] was less than 25 µM. Further, in the assay on plasma cholesterol, the change in vivo at 180 mg/kg/day was 4%. `CCOP(=O)(OCC)C(NCCCc1ccccc1)c1cc(C(C)(C)C)c(O)c(C(C)(C)C)c1` (stereo not drawn) [Compound 22, Diethyl α-(3,5-di-tert-butyl-4-hydroxyphenyl)-N-(3-phenytpropyl)aminomethylphosphonate] yielded an IC50 in assay [1] of 4 µM. In addition, the “Plasma Cholesterol (% Control)” value with plasma cholesterol (0.1% compound in food, 10 days, ca. 180 mg/kg daily, mouse) is given as -53 % Control. Further, the “decrease plasma cholesterol by” value with plasma cholesterol (mouse, 10 days) is “more than 30%”. In assay [1], `CCOP(=O)(OCC)C(Nc1ccc2c(c1)Cc1ccccc1-2)c1cc(C(C)(C)C)c(O)c(C(C)(C)C)c1` (stereo not shown) [Compound 48] displayed an IC50 of less than 25 µM. For the same compound, the change in vivo at 180 mg/kg/day in the assay with plasma cholesterol worked out at 3%. On to `CCOP(=O)(OCC)C(c1cc(C(C)(C)C)c(O)c(C(C)(C)C)c1)N(C(=O)C(F)(F)F)C(Cc1ccccc1)c1ccccc1` (stereo not shown) [Compound 56], for which the IC50 in assay [1] was less than 25 µM.

`CCCOP(=O)(OCCC)C(NCCCc1ccccc1)c1cc(C(C)(C)C)c(O)c(C(C)(C)C)c1` (stereo not shown) [Compound 23] showed an IC50 in assay [1] of less than 25 µM. Further, in the assay with plasma cholesterol, the change in vivo at 180 mg/kg/day is -4%. For `CC(C)OC(=O)C(C)(C)Oc1ccc(C(=O)c2ccc(Cl)cc2)cc1` [Fenofibrate, reference compound], the “plasma cholesterol values as compared to control” value with plasma cholesterol (mouse) is listed as -26%. Compound `CCOP(=O)(OCC)C(NC(C)(C)C)c1cc(C(C)(C)C)c(O)c(C(C)(C)C)c1` (stereo not shown) [Compound 1] displayed an IC50 in assay [1] greater than 25 µM. Also, the change in vivo at 180 mg/kg/day with plasma cholesterol came to 8%. Compound `COP(=O)(OC)C(NCCCc1ccccc1)c1cc(C(C)(C)C)c(O)c(C(C)(C)C)c1` (stereo not shown) [Compound 21] displayed an IC50 in assay [1] of less than 25 µM. For the same compound, the change in vivo at 180 mg/kg/day in the assay on plasma cholesterol is -33%. Further, the “decrease plasma cholesterol by” value with plasma cholesterol (mouse, 10 days) is given as “more than 30%”. Take `CCOP(=O)(OCC)C(c1cc(C(C)(C)C)c(O)c(C(C)(C)C)c1)N(CCc1ccccc1)C(C)=O` (stereo not shown) [Compound 53]: the IC50 in assay [1] is less than 25 µM. Regarding `CCOP(=O)(OCC)C(NCc1ccccc1)c1cc(C(C)(C)C)c(O)c(C(C)(C)C)c1` (stereo not shown) [Compound 12], the IC50 in assay [1] amounted to 0.7 µM. Further, in the assay on plasma cholesterol, the change in vivo at 180 mg/kg/day was -23%. `CCOP(=O)(OCC)C(NCCc1ccccc1)c1cc(C(C)CC)c(O)c(C(C)CC)c1` (stereo not drawn) [Compound 73, Diethyl α-(3,5 di-sec-butyl-4-hydroxyphenyl)-N-(2-phenylethyl) aminomethylphosphonate] returned a 50% inhibitory concentration (IC50) in assay [1] of 2.9 µM. The change in vivo at 180 mg/kg/day with plasma cholesterol was -40%. Further, the “decrease plasma cholesterol by” value in the assay on plasma cholesterol (mouse, 10 days) was “more than 30%”.

Consider `CCOP(=O)(OCC)C(Nc1ccc(N2C(=O)c3ccc(Cl)cc3C2=O)c(C)c1)c1cc(C(C)(C)C)c(O)c(C(C)(C)C)c1` (stereo not shown) [Compound 11], for which the IC50 in assay [1] was determined as 2.7 µM. With `CCOP(=O)(OCC)C(NC(C)c1cccc2ccccc12)c1cc(C(C)(C)C)c(O)c(C(C)(C)C)c1` (stereo not shown) [Compound 31], the IC50 in assay [1] was less than 25 µM. In the assay on plasma cholesterol, the change in vivo at 180 mg/kg/day is -3%. The matching figures for `CCOP(=O)(OCC)C(NC(C)CCc1ccccc1)c1cc(C(C)(C)C)c(O)c(C(C)(C)C)c1` (stereo not shown) [Compound 30]: 15.6 µM and -12%. The matching figures for `COP(=O)(OC)C(c1cc(C(C)(C)C)c(O)c(C(C)(C)C)c1)N(CCCc1ccccc1)C(C)=O` (stereo not shown) [Compound 59]: less than 25 µM and -36%. In assay [1], `CCOP(=O)(OCC)C(NCc1cccnc1)c1cc(C(C)(C)C)c(O)c(C(C)(C)C)c1` (stereo not drawn) [Compound 42, Diethyl α-(3,5-di-tert-butyl-4-hydroxyphenyl)-N-(3-picolyl)-aminomethylphosphonate] yielded an IC50 of 12.8 µM. For the same compound, the change in vivo at 180 mg/kg/day in the assay on plasma cholesterol was -43%. Moreover, the “decrease plasma cholesterol by” value with plasma cholesterol (mouse, 10 days) is “more than 30%”. Take `CCOP(=O)(OCC)C(Cc1cc(C(C)(C)C)c(O)c(C(C)(C)C)c1)NCCCc1ccccc1` (stereo not drawn) [Compound 68, Diethyl α-(3,5-di-tert-butyl-4-hydroxybenzyl)-N-(3-phenylpropyl)-aminomethylphosphonate]: the IC50 in assay [1] is less than 25 µM. Further, the change in vivo at 180 mg/kg/day with plasma cholesterol is -18%. In the case of `CCOP(=O)(OCC)C(N)c1cc(C(C)(C)C)c(O)c(C(C)(C)C)c1` (stereo not drawn) [Compound 83, Diethyl α-(3,5-di-tert-butyl4-hydroxyphenyl)-aminomethyl-phosphonate], the change in vivo at 180 mg/kg/day in the assay with plasma cholesterol stood at 4%. `CCOP(=O)(OCC)C(c1cc(C(C)(C)C)c(O)c(C(C)(C)C)c1)N(Cc1ccccc1)C(=O)C(F)(F)F` (stereo not shown) [Compound 52]: the IC50 in assay [1] is less than 25 µM. Still for that read-out and setting: in the case of `CCCCCc1ccc(N(C(=O)C(F)(F)F)C(c2cc(C(C)(C)C)c(O)c(C(C)(C)C)c2)P(=O)(OCC)OCC)cc1` (stereo not shown) [Compound 58] it was less than 25 µM; in that of `CCOP(=O)(OCC)C(Nc1cccc(C)c1)c1cc(C(C)(C)C)c(O)c(C(C)(C)C)c1` (stereo not shown) [Compound 8], less than 25 µM. As for `CCOP(=O)(OCC)C(NCCN1CCCCC1)c1cc(C(C)(C)C)c(O)c(C(C)(C)C)c1` (stereo not shown) [Compound 34], the change in vivo at 180 mg/kg/day in the assay on plasma cholesterol was -5%. Still for that read-out and setting: in the case of `CCCCOc1ccc(C(NCCc2ccccc2)P(=O)(OCC)OCC)cc1` (stereo not shown) [Compound 69] it was 2%.

Regarding `CCOC(=O)C(C)(C)Oc1ccc(Cl)cc1` [Clofibrate, reference compound], the “plasma cholesterol values as compared to control” value in the assay with plasma cholesterol (mouse) is “+4%”. Still for that read-out and setting: for `Cc1ccc(C)c(OCCCC(C)(C)C(=O)O)c1` [Gemfibrozil, reference compound] the value was -7%.

Consider `CCCCOP(=O)(OCCCC)C(c1cc(C(C)(C)C)c(O)c(C(C)(C)C)c1)N(CCc1ccc(Cl)cc1)C(=O)C(F)(F)F` (stereo not shown) [Compound 55], for which, in assay [1], the IC50 was greater than 25 µM. The same measure, in the same setting: in the case of `CCOP(=O)(OCC)C(c1cc(C(C)(C)C)c(O)c(C(C)(C)C)c1)N(CCOc1ccccc1)C(=O)C(F)(F)F` (stereo not shown) [Compound 57] it was less than 25 µM. For `CCOP(=O)(OCC)C(NCc1cc(C(C)(C)C)c(O)c(C(C)(C)C)c1)c1cc(C(C)(C)C)c(O)c(C(C)(C)C)c1` (stereo not drawn) [Compound 40, Diethyl α-(3,5-di-tert-butyl-4-hydroxyphenyl)-N-(3,5-di-tert-butyl-4-hydroxybenzyl)-aminomethylphosphonate], in the assay on plasma cholesterol, the change in vivo at 180 mg/kg/day is -25%.

Turning to `CCOP(=O)(OCC)C(NC(=O)OCc1ccccc1)c1cc(C(C)(C)C)c(O)c(C(C)(C)C)c1` (stereo not drawn) [Compound 85, Diethyl α-(3,5-di-tert-butyl-4-hydroxyphenyl)-N-benzyloxycarbonyl-aminomethylphosphonate], the change in vivo at 180 mg/kg/day in the assay on plasma cholesterol was 0%. On the same count and under the same terms, in the case of `C=CCNC(c1cc(C(C)(C)C)c(O)c(C(C)(C)C)c1)P(=O)(OCC)OCC` (stereo not drawn) [Compound 84, Diethyl α-(3,5-di-tert-butyl-4-hydroxyphenyl)-N-allyl-aminomethylphosphonate] it was -19%. In assay [1], `CCOP(=O)(OCC)C(c1cc(C(C)(C)C)c(O)c(C(C)(C)C)c1)N(CCCCc1ccccc1)C(=O)C(F)(F)F` (stereo not shown) [Compound 66] came in with an IC50 of less than 25 µM. `CCOP(=O)(OCC)C(NC1COC(C)(C)OC1c1ccccc1)c1cc(C(C)(C)C)c(O)c(C(C)(C)C)c1` (stereo not shown) [Compound 91]: the change in vivo at 180 mg/kg/day with plasma cholesterol was -18%. Compound `CCOP(=O)(OCC)C(c1cc(C(C)(C)C)c(O)c(C(C)(C)C)c1)N(CCCc1ccccc1)C(=O)C(F)(F)F` (stereo not drawn) [Compound 64, Diethyl α-(3,5-di-tert-butyl-4-hydroxyphenyl)-N-trifluoroacetyl-N-(3-phenylpropyl)-aminomethylphosphonate] had an IC50 in assay [1] of less than 25 µM. The same measure, in the same setting: in the case of `CCOP(=O)(OCC)C(c1cc(C(C)(C)C)c(O)c(C(C)(C)C)c1)N(CCc1ccccc1)C(=O)C(F)(F)F` (stereo not shown) [Compound 54] it was less than 25 µM; in that of `CCOP(=O)(OCC)C(c1cc(C(C)(C)C)c(O)c(C(C)(C)C)c1)N(Cc1ccccc1)C(C)=O` (stereo not shown) [Compound 51], less than 25 µM.
